Several values for one entry are separate records, joined by “and”; a condition that tells them apart may be missing. Equal entries are not always repeated. Where two headings read alike, the source gives them in different places. Marks after values point to notes of the source that are not given here.
How the values were obtained:
Leptosphaeria nodorum = Leptosphaeria nodorum test (wheat) / protective; assay type: in vivo; details: 500 ppm active compound, protective spray, evaluated 7-9 days after inoculation
Procedure: Leptosphaeria nodorum Test (Wheat)/Protective
Solvent: 49 parts by weight of N,N-dimethylformamide
Emulsifier: 1 part by weight of alkylaryl polyglycol ether
To produce a suitable preparation of active compound, 1 part by weight of active compound is mixed with the stated amounts of solvent and emulsifier, and the concentrate is diluted with water to the desired concentration.
To test for protective activity, young wheat plants are sprayed with the preparation of active compound at the stated application rate. […] The plants are then placed in a greenhouse at 90% rel. atmospheric humidity and a temperature of 22° C.
Evaluation is carried out 7-9 days after the inoculation. 0% means an efficacy which corresponds to that of the control, whereas an efficacy of 100% means that no infection is observed.

Fusarium graminearum = assay type: cell-based
Alternaria solani = experiment: Alternaria test (tomato) / protective; assay type: in vivo; details: 500 ppm active compound, protective spray, evaluated 7 days after inoculation
How it was run: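 Young tomato plants sprayed protectively with compound formulated in DMF with alkylaryl polyglycol ether emulsifier and diluted in water to the application rate. After inoculation, plants held at 96% rel. humidity and 20° C. Efficacy scored 7 days post-inoculation: 0% equals untreated control, 100% no infection.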

Pyrenophora teres = experiment: In vivo test on Pyrenophora teres (barley net blotch); details: dose of 500 ppm; barley plants; grading 12 days after contamination
How it was run: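 Barley plants (Plaisant) grown at 12° C. sprayed at 1-leaf stage with compound in acetone/Tween/DMSO diluted in water; 24 h later inoculated with P. teres spores (12,000 spores/ml). Incubated 24 h at ~20° C., 100% RH, then 12 days at 80% RH; graded 12 days post-inoculation against untreated controls.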

Row | Compound | efficacy (Leptosphaeria nodorum) | % Inhibition of fungal growth at 50 μM (Fusarium graminearum; 50 μM) | % Inhibition of DON/AcDON at 50 μM (Fusarium graminearum; 50 μM, 7 days at 28° C.) | log p (pH 2.7) | efficacy (Alternaria solani) | protection (Pyrenophora teres) | log p (pH 7.8) | log p (pH 2.3) | % Inhibition of DON/AcDON at 50 μM (Fusarium graminearum) | logP value of the minor isomer (pH 2.7)
1 | CCC(C)n1cc(-c2ccnc(NC(=O)C(C)C)c2)c(-c2ccc(Cl)s2)n1 (stereo not drawn) [Example 234] | 80% | 45% | 96% | 3.63^[b] | 90% | 95% | – | – | – | –
2 | CCC(C)C(=O)Nc1cc(-c2cn(C(C)C)nc2-c2ccc(Cl)s2)ccn1 (stereo not drawn) [Example 249] | 80% | 11% | 99% | 3.61^[b] | 95% | 95% | – | – | – | –
3 | CC(C)n1cc(-c2ccncc2)c(-c2ccc(Br)s2)n1 [Example 387] | 90% | 93% | 99% | 1.88^[b] | 100% | 80% | – | – | – | –
4 | CCn1cc(-c2ccnc(N)c2)c(-c2ccc(Cl)s2)n1 [Example 307] | 78% | 45% | 80% | 1.54^[b] | 80% and 94% | 80% and 95% | – | – | – | –
5 | CCn1nc(-c2ccc(Cl)s2)c(-c2ccncc2)c1C [Example 146] | 95% | – | – | 1.61^[b] | 95% | 100% | 3.08^[c]; | – | – | –
6 | CCC(=O)Nc1cc(-c2cn(C(C)CC)nc2-c2ccc(Cl)s2)ccn1 (stereo not drawn) [Example 225] | 70% | 87% | 99% | 3.19^[b] | 95% | 95% | – | – | – | –
7 | CC(C)n1cc(-c2ccnc(NC(=O)C3CC3)c2)c(-c2ccc(Cl)s2)n1 [Example 247] | 80% | 91% | 99% | 2.94^[b] | 95% | 100% | – | – | – | –
8 | Cc1c(-c2ccncc2)c(-c2ccc(Cl)s2)nn1C(C)C [Example 145] | 95% | – | – | 2.07^[b] | 100% | 100% | 3.8^[c]; | – | – | –
9 | CCC(=O)Nc1cc(-c2c(-c3ccc(Cl)s3)nn(CC)c2C)ccn1 [Example 169] | 80% | – | – | 2.71^[b] | 95% | 95% | 3.1^[c]; | – | – | –
10 | CCC(=O)Nc1nccc(-c2cn(C(C)CC)nc2-c2ccc(Cl)s2)n1 (stereo not drawn) [Example 190] | 70% | – | – | – | 80% | 95% | – | 3.37^[a] | – | –
11 | CC(C)CC(=O)Nc1cc(-c2cn(C(C)C)nc2-c2ccc(Cl)s2)ccn1 [Example 258] | 70% | 54% | 94% | 3.63^[b] | 95% | 100% | – | – | – | –
12 | CC(=O)N(C(C)=O)c1cc(-c2cn(C(C)C)nc2-c2ccc(Cl)s2)ccn1 [Example 304] | 80% | 87% and 90% | – | 3.33^[b] | 95% | 95% | – | – | 100% | –
13 | Cn1cc(-c2ccnc(NC(=O)C3CC3)c2)c(-c2ccc(Cl)s2)n1 [Example 279] | 70% | 100% | 98% | 2.16^[b] | 80% | 95% | – | – | – | –
14 | CCC(=O)Nc1cc(-c2cn(CC)nc2-c2ccc(Cl)s2)ccn1 [Example 263] | 80% | 100% | 99% | 2.4^[b] | 95% | 90% | – | – | – | –
15 | CCC(C)n1cc(-c2ccnc(NC(=O)C3CC3)c2)c(-c2ccc(Cl)s2)n1 (stereo not drawn) [Example 226] | 80% | 93% | 99% | 3.35^[b] | 90% | 100% | – | – | – | –
16 | CC(C)Cn1cc(-c2ccncc2)c(-c2ccc(Br)s2)n1 [Example 405] | 94% | 90% | 99% | 2.1^[b] | 94% | 70% | – | – | – | (1.98)
17 | Cn1cc(-c2ccnc(NC(=O)CC3CC3)c2)c(-c2ccc(Cl)s2)n1 [Example 281] | 80% | 100% | 99% | 2.54^[b] | 90% | 90% | – | – | – | –

Row | Compound | efficacy (Leptosphaeria nodorum) | % Inhibition of fungal growth at 50 μM (Fusarium graminearum; 50 μM) | % Inhibition of DON/AcDON at 50 μM (Fusarium graminearum; 50 μM, 7 days at 28° C.) | log p (pH 2.7) | efficacy (Alternaria solani) | protection (Pyrenophora teres) | log p (pH 7.8) | log p (pH 2.3) | % Inhibition of DON/AcDON at 50 μM (Fusarium graminearum) | logP value of the minor isomer (pH 2.7)
18 | CCn1cc(-c2ccnc(NC(=O)CC(C)C)c2)c(-c2ccc(Cl)s2)n1 [Example 286] | 90% | 68% | 99% | 3.15^[b] | 90% | 80% | – | – | – | –
19 | Cn1cc(-c2ccnc(NC(=O)Cc3ccccc3)c2)c(-c2ccc(Cl)s2)n1 [Example 277] | 70% | – | – | 3.06^[b] | 90% | 90% | – | – | – | –
20 | CCC(=O)Nc1cc(-c2c(-c3ccc(Cl)s3)nn(C)c2C)ccn1 [Example 170] | 90% | – | – | 2.32^[b] | 90% | 80% | 2.68^[c]; | – | – | –
21 | CC(C)Cn1cc(-c2ccncc2)c(-c2cccs2)n1 [Example 407] | 94% | 99% | 100% | 1.5^[b] | 90% | 90% | – | – | – | –
22 | CC(C)n1cc(-c2ccnc(NC(=O)C3CCC3)c2)c(-c2ccc(Cl)s2)n1 [Example 243] | 90% | 31% | 99% | 3.37^[b] | 90% | 95% | – | – | – | –
23 | CCC(C)C(=O)Nc1cc(-c2cn(C)nc2-c2ccc(Cl)s2)ccn1 (stereo not drawn) [Example 280] | 80% | – | – | 2.71^[b] | 90% | 90% | – | – | – | –
24 | CC(C)C(=O)Nc1cc(-c2cn(C(C)C)nc2-c2ccc(Cl)s2)ccn1 [Example 257] | 90% | 81% | 99% | 3.21^[b] | 95% | 95% | – | – | – | –
25 | CCn1cc(-c2ccnc(NC(C)=O)c2)c(-c2ccc(Cl)s2)n1 [Example 284] | 80% | 100% | 99% | 2.1^[b] | 95% | 100% | – | – | – | –
26 | CCC(C)C(=O)Nc1cc(-c2cn(CC)nc2-c2ccc(Cl)s2)ccn1 (stereo not drawn) [Example 252] | 70% | 99% | 99% | 3.13^[b] | 95% | 100% | – | – | – | –
27 | CCC(C)n1cc(-c2ccncc2)c(-c2ccc(Br)s2)n1 (stereo not drawn) [Example 354] | 70% | 97% | 99% | 2.15^[b] | 90% | 95% | – | – | – | –
28 | CCn1cc(-c2ccnc(NC(=O)C(C)C)c2)c(-c2ccc(Cl)s2)n1 [Example 285] | 80% | 90% | 99% | 2.77^[b] | 95% | 95% | – | – | – | –
29 | CC(=O)Nc1cc(-c2cnn(/C=C/F)c2-c2ccc(Cl)s2)ccn1 [Example 292] | 70% | 45% | 100% | 2.84^[b] | 90% | 95% | – | – | – | –
30 | CC(C)n1cc(-c2ccnc(NC(=O)N(C)C)c2)c(-c2ccc(Cl)s2)n1 [Example 248] | 90% | – | – | 1.97^[b] | 90% | 100% | – | – | – | –
31 | CCC(=O)Nc1cc(-c2cn(C(C)C)nc2-c2ccc(Cl)s2)ccn1 [Example 246] | 90% | 91% | 99% | 2.78^[b] | 95% | 100% | – | – | – | –
32 | CC(=O)Nc1cc(-c2cn(C(C)C)nc2-c2ccc(Cl)s2)ccn1 [Example 256] | 80% | 100% | 99% | 2.45^[b] | 100% | 100% | – | – | – | –
33 | CCC(=O)Nc1cc(-c2c(-c3ccc(Cl)s3)nn(C(C)C)c2C)ccn1 [Example 168] | 90% | – | – | 3.34^[b] | 90% | 90% | 3.76^[c]; | – | – | –
